In article PMC12851007 (Angewandte Chemie (International Ed. in English), 2025):
Like-named read-outs stand apart in the source and are kept apart here.

Key:
[1] = CX4/LCG tandem membrane assay with subsequent addition of spermine (transient vs stable pores); type: in vitro ADME; details: TP10 0.2 µM or melittin 5 nM at 60 s, spermine 20 µM at 340 s, 10 mM Hepes, 175 mM glucose, pH 7.5
Procedure: This means that TP10 renders the vesicle membranes only transiently permeable, while after some time, the pores “close”, most likely due to equilibration of the inside and outside concentrations of TP10. At sufficiently low TP10 concentrations, the vesicles have consequently released only some of their content after a certain incubation time and no further release of encapsulated compounds is observed thereafter. The transient nature of the TP10 pores was also confirmed herein by the CX4/LCG tandem membrane assay (Figure 4, black line). […] At this point of time, the TP10 pores should be either closed, or there should be some remaining stable equilibrium pores, which are too small to allow efflux of relatively large CX4 and/or LCG (MW > 500 Da), but sufficiently large to allow CF efflux (MW = 376 Da). Closed pores would refer to the previously reported graded mechanism, whereas the latter would point toward an all‐or‐none release mechanism.^[ [12], [70] ^] […] The newly developed assay has therefore the added capacity to afford more fine‐grained mechanistic information on membrane activity.
The blue trace is a control to illustrate full dissociation of the CX4/LCG complex during vesicle lysis by TX‐100.
LysisLysis vesicle lysisvesicle lysis […]
calibration cocktail at 600 s. a) Original changes in fluorescence intensity of LCG ( λex = 369 nm, λem = […]

[2] = Dual-channel assay, CX4/LCG channel, POPC vesicles; type: in vitro ADME; details: dual-channel; seven independent POPC LUV batches (n = 7), penetratin 15 µM, Pep-1 10 µM, LRLLRW 30 µM, TP10 0.15 µM, 10 mM Hepes, 175 mM glucose, pH 7.5, t-test/ANOVA p < 0.001; melittin: Figure S35 and Table S9
Source text: With the established identical extravesicular conditions in both assays, we further envisaged a simultaneous measurement of both assays within the same solution to enhance the comparability of the measurements. This became possible after optimization of the excitation and emission wavelengths. […] A further optimization was required, because the dye concentrations in the CF assay and the CX4/LCG assay are largely different.^[ [51], [52] ^] Consequently, simultaneous monitoring requires the detection of a low amount of LCG in the presence of a high concentration of the much more brightly fluorescent CF, which challenges the dynamic range of a typical fluorescence spectrometer in a dual‐channel measurement. To reduce the fluorescence read‐out of CF, the excitation wavelength was shifted from the absorption maximum at ca. 490 nm to 525 nm, where CF has a much lower absorbance, and the emission in the CF channel was shifted from its maximum at ca. 515 nm to 545 nm to further reduce the fluorescence of CF. To maintain a high LCG fluorescence, excitation was performed at the absorption maximum at 369 nm. Since CF has a residual absorbance at this excitation wavelength, emission in the LCG channel was monitored at 475 nm instead of 502 nm to eliminate spill‐over of CF fluorescence into the LCG channel. […]
Time-dep endent fluores cence intensit y traces, I (t), were subsequentl y normalized to fractional intensities, If(t), using equation (1) and the concentration- dependent fractional intensities just before the addition of th e calibration co cktail, I f, w ere then normaliz ed to fr actional membran e activities, Y, using equation (2). The fractional membrane activities, Y, were subsequently plotted against the peptide concentration, c, and anal ysed using the Hill equation (3) to obtain the effective molar concentration, EC 50, and the Hill coefficient, n. For peptides with too low activity to determine Y max ex perimentall y, Y max was fixed at 1.0 during fitting. […]
Dual-Channel Measurements
Vesicles w ere prep ared a s described abov e (se e en try (4) in Table S2 and entry (3) in Table S3) and eluted with freshl y prepared 10 mM Hepes, 175mM glucos e, pH 7.5 i n the size exclusion chromatograph y. For the measurements, an approp riate volume o f the liposome stock solutions was diluted to 2m L in a 10× 10 mm PS cuvette wi th 10 mM Hep es bu ffer and 175 mM glucos e at pH 7.5 to afford 12.5µM POPC ⊃CX4/LCG-LUVs and 12.5 µM POPC⊃CF-LUVs (25 µM POPC total). The cuvette was placed into a thermostatted fluorimeter sample holder at 25.0 °C and gentl y stirred at 300 rpm. The fluorescence intensity w as simultaneous l y r eco rded in the CF chann el ( λ exc = 525 nm, λ em = 545 nm) and in the LCG channel ( λ exc = 369 nm, λ em = 475 nm) with an ex citation slit width of 5 nm and an emission slit width of 5 n m during addition of 20 µL peptide stock solution of varying concentrations at 60 s and 20 µL of a calibration

[3] = type: binding; details: LCG displacement in 10 mM Hepes, pH 7.0, 25 °C; fluorescence; error = SD of nonlinear fit, n = 1
Procedure: Fluorescence titrations were performed as previously described and the resulting titration curves we re an al yz ed usi ng established pro cedur es . Competitive titrations were eithe r anal yz ed with a fitting function assuming 1:1 host-competitor complexes[3] or with a fitting function involving hi gher complex es with more than on e h ost bound per peptide.[4] In the latter c ase, an identical binding affinity is assumed for all binding sites. […]
Figure S1. a) Fluorescence titration of 0.5 µM LCG ( λex = 369 n m) with varying concentrations of CX4 in 10 mM Hepes, pH 7.0, 25 °C .b) Respective titration curve ( λem = 502 nm) with fitted line . […]
Figure S2. a) Competitive fluorescence titration wit h 0.5 µM LCG, 1 µM CX4 ( λex = 369 nm) and varying concentrations of penetratin in 10 mM Hepes, pH 7.0, 25 °C . b) Respective titration c ur ve (λem = 502 nm) with fitted line .
(also on this page, place not known: analyzed using procedures. were either analyzed host -competitor higher complexes one host case, 700 Intensity Intensity (λex °C. line. 650 0 Intensity 0 Intensity b) curve (λem nm) with line.)

[4] = In 10 mM NaH2PO4, pH 7.2; ref [46]; cited from earlier work
Source text: Table 1 Binding constants of peptides to CX4. ^a) | column: K a (M^−1)

[5] = CX4/LCG supramolecular tandem membrane assay, POPC vesicles; type: in vitro ADME; details: 30 µM peptide; 25 µM POPC⸧CX4/LCG-LUVs (inside 700 µM CX4, 500 µM LCG) in 10 mM Hepes, pH 7.0, 25 °C; fluorescence λexc 369/λem 502 nm; peptide at 60 s, TX-100/protamine at 600 s; fractional activity; n = 1
Procedure: Membrane Activity M easurements
Vesicle preparation. 100 µ L of a solution of 25 mg/ml of POPC in chloroform or 200 µ L of a solution of 25 mg/ml of EYPC in chloroform was purged with nitrogen and dried overnight under hi gh vacuum. The thin lipid film was rehydrated with 1 ml reh ydrati on buffer (= inside buffer, see Tabl e S2 ) b y agitation at room temperature for 30min and then subjected to 2 0 freeze- th aw c ycles (freezing in liquid nitro gen and thawing at 40 °C). […]
Ta b l e S 2. Combinations of lipids and inside and outside buffer for CX4/LCG -LUVs.
No. Lipid Inside buffer = rehydration buffer Outside buffer
(4) POPC 10 mM Hepes, 700 µM CX4, 500 µM LCG, 10 mM Hepes buffer, 175 mM glucose, pH 7.5 [a] 175 mM glucose, pH 7.5 [a]
[a] Glucose b uffers (183 mOsm/L at 25 °C) were used within one week after preparation.
Vesicle quality control. T o ensure the absence of the CX4/ LCG reporter pair in the ex travesicular ph ase, 20 µL of the collected liposome fr action w as diluted to 2 ml with outside buffer and the fluor escen ce (λ exc = 369 nm; λ em = 502 nm) was recorded during the addition of […]
The final lipid content in the liposome suspension after p repa rat ion and separ ation was d etermined b y NMR as p reviousl y reported. Assay protocol. An appropriate volume of the liposome stock solutions was diluted to 2m L with outside buffer in a 10 ×10 mm quartz glass cuvette to afford a phospholipid concentration of 25 µM. The cuvette was placed into a thermostatted fluorimeter sample holder at 25.0 °C and gentl y stirred at 300 rpm. Subsequently, the time-dependent change in fluorescence intensity (λ exc = 369 nm; λ em = 502 nm) was record ed during addition of 20 µ L of peptide stock solutions of varying concentrations at 60 s. At 600 s, 20µ L o f a solution containing 1.6% (wt/vol) TX-100 and 1.5 mM protamine was added for calibration to affo rd 0.016% (wt/vol) TX-100 and 15 µM protamine final concent rations.
Time-dep endent fluores cence intensit y traces, I (t), were subsequentl y normalized to fractional intensities, If(t), using equation (1). Therein, I 0 is the intensity just before addition of peptide and I ∞ is the constant intensit y after addition of the calibration cockt ail.
IIf (tt ) = II (tt )−II0II∞ − II0 (1)
The concentration-dependent fractional intensities just before the addition of the calibration cocktail, If, were then normalized to fractional membrane activities, Y, using equation (2).
Therein, If,0 is the fractional intensit y just before addition of the calibration cocktail in absence of peptide and I f,∞ is the constant fractional intensity after addition of the calibration cocktail.
YY = IIf − IIf,0IIf,∞ − IIf,0 (2)
The fractional membrane activities, Y, were subsequently plotted against the peptide concentration, c, and analysed using the Hill equation (3) to obtain the effective molar concentration, EC50, and the Hill coefficient, n. Y0 and Y ma x are the fractional membrane activities in absen ce o f p eptide and at max imal peptide concent rations. For peptides with too little activity to determine Y ma x ex perimentall y, Y max was fixed at 1.0 during fitting. […]

Structure (SMILES)	kind of pores (fluorescence response to spermine added after the peptide) [1]	membrane activity in the CX4/LCG channel compared with the CF channel [2]	K a, binding constant of peptide to CX4 [3]	K a, binding constant of peptide to CX4 [4]	Y30µM, membrane activity, CX4/LCG assay [5]
CC[C@H](C)[C@H](NC(=O)CN)C(=O)NCC(=O)N[C@@H](C)C(=O)N[C@H](C(=O)N[C@@H](CC(C)C)C(=O)N[C@@H](CCCCN)C(=O)N[C@H](C(=O)N[C@@H](CC(C)C)C(=O)N[C@H](C(=O)N[C@H](C(=O)NCC(=O)N[C@@H](CC(C)C)C(=O)N1CCC[C@H]1C(=O)N[C@@H](C)C(=O)N[C@@H](CC(C)C)C(=O)N[C@H](C(=O)N[C@@H](CO)C(=O)N[C@@H](Cc1c[nH]c2ccccc12)C(=O)N[C@H](C(=O)N[C@@H](CCCCN)C(=O)N[C@@H](CCCNC(=N)N)C(=O)N[C@@H](CCCCN)C(=O)N[C@@H](CCCNC(=N)N)C(=O)N[C@@H](CCC(N)=O)C(=O)N[C@@H](CCC(N)=O)C(N)=O)[C@@H](C)CC)[C@@H](C)CC)[C@@H](C)O)[C@@H](C)O)C(C)C)C(C)C [Melittin]	forms stable equilibrium pores	higher activity with the CF assay	(1.2 ± 0.3) × 10^7 M^−1	–	–
N=C(N)NCCC[C@H](NC(=O)[C@H](CCCNC(=N)N)NC(=O)[C@H](CCCNC(=N)N)NC(=O)[C@H](CCCNC(=N)N)NC(=O)[C@H](CCCNC(=N)N)NC(=O)[C@H](CCCNC(=N)N)NC(=O)[C@@H](N)CCCNC(=N)N)C(=O)O [Peptide R7, heptaarginine]	–	–	–	(7.2 ± 0.5) × 10^7 M^−1	0.17
N=C(N)NCCC[C@H](NC(=O)[C@H](CCCNC(=N)N)NC(=O)[C@H](CCCNC(=N)N)NC(=O)[C@H](CCCNC(=N)N)NC(=O)[C@H](CCCNC(=N)N)NC(=O)[C@H](CCCNC(=N)N)NC(=O)[C@H](CCCNC(=N)N)NC(=O)[C@H](CCCNC(=N)N)NC(=O)[C@@H](N)CCCNC(=N)N)C(=O)O [Peptide R9, nonaarginine]	–	–	(1.8 ± 0.4) × 10^8 M^−1	–	0.11
